Where two headings read alike, the source gives them in different places.

Assay [1] concerns the target T1, HPK1 kinase (aa1-346, Life Technologies) (Homo sapiens, UniProt Q92918).
T1 construct: HPK1 kinase (aa1-346, Life Technologies); purchased Life Technologies
T1 sequence (Q92918 1-346): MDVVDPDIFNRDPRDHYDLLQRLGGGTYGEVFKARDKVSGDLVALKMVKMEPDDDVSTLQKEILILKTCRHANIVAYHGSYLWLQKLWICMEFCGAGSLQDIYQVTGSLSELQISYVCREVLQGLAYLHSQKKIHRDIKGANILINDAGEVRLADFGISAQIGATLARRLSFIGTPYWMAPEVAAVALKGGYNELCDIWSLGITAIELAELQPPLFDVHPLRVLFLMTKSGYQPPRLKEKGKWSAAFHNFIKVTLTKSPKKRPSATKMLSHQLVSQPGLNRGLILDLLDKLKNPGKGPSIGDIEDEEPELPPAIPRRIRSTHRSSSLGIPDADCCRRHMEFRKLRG
Kind of assay: HPK Kinase Activity Assay at 1 mM ATP (TR-FRET). The class given is biochemical. Conditions: HPK1 kinase 40 nM, 0.5 μM STK1 substrate, 60 min preincubation, read-out: Enzymatic activity IC50. The method, then:
HPK Kinase Activity Assay at 1 mM ATP
Compounds disclosed herein were tested for inhibition of HPK1 kinase (aa1-346, Life Technologies) activity in assays based on the time-resolved fluorescence-resonance energy transfer (TR-FRET) methodology. The assays were carried out in 384-well low volume black plates in a reaction mixture containing HPK1 kinase (40 nM), 1 mM ATP, 0.5 μM STK1 substrate and 0-10 μM compound in buffer containing 50 mM HEPES, 0.01% BSA, 0.1 mM Orthovanadate, 10 mM MgCl2, 1 mM DTT, pH=7.0, 0.005% Tween-20. The kinase was incubated with the compounds disclosed herein or DMSO for 60 minutes at room temperature and the reaction was initiated by the addition of ATP and STK1 substrate. After reaction at room temperature for 120 minutes, an equal volume of stop/detection solution was added according to the manufacture's instruction (CisBio). The stop/detection solution contained STK Antibody—Cryptate and XL665-conjugated streptavidin in Detection Buffer. The TR-FRET signals (ratio of fluorescence emission at 665 nm over emission at 620 nm with excitation at 337 nm wavelength) were recorded on a PHERAstar FS plate reader (BMG Labtech). Phosphorylation of STK1 substrate led to the binding of STK Antibody—Cryptate to the biotinylated STK1 substrate, which places fluorescent donor (Eu^3+ crypate) in close proximity to the accepter (Streptavidin-XL665), thus resulting in a high degree of fluorescence resonance energy transfer. The inhibition of HPK1 in presence of increasing concentrations of compounds was calculated based on the ratio of fluorescence at 665 nm to that at 620 nm. IC50 determination was performed by fitting the curve of percent inhibition versus the log of the inhibitor concentration using Dotmatics.
For orientation: In TR-FRET formats the signal depends on donor and acceptor labels being close together.

Assay [2] relates to pSLP76 (S376) level in Jurkat cell line. Kind of assay: Cellular pSLP76(S376) HTRF Assay in Jurkat cells. The class given is cell-based. Conditions: 2 h compound treatment, stimulated with 0.05 μg/mL anti-human CD3 (OKT3) for 30 min. The method, then:
Cellular pSLP76(S376) HTRF Assay
Jurkat cell line was used in this study. Cells were maintained in RPMI 1640 supplemented with heat-inactivated 10% fetal bovine serum (Thermo Fisher), 50 units/mL penicillin and streptomycin (Thermo Fisher) and kept at 37° C. in a humidified atmosphere of 5% CO2 in air. Cells were reinstated from frozen stocks that were laid down within 30 passages from the original cells purchased. After cell starvation in the assay buffer (RPMI 1640 supplemented with heat-inactivated 0.1% fetal bovine serum) for 18 hours, cells were seeded into a round bottom 96-well plate at 150,000 cells per well density. Cells were treated with a 9-point dilution series of test compounds. The final compound concentration is from 0 to 2 μM. After 2 h compound treatment, cells were stimulated with 0.05 μg/mL anti-human CD3 (OKT3, Bioxcell) for 30 min at 37° C. Then the cells were lysed, and the pSLP76 (S376) level in the cell lysates was detected by HTRF kit (Cisbio). A total of 16 μL of cell lysate from each well of a 96-well plate was transferred to a 384-well small volume white assay plate. Lysate from each well was incubated with 2 μL of Eu^3+-cryptate (donor) labeled anti-phospho-SLP76 and 2 μL of D2 (acceptor) labeled anti-phospho-SLP76 antibodies (Cisbio) overnight in dark at room temperature. FRET signals (655 nm) were measured using a PHERAstar FSX reader (BMG Labtech). IC50 determination was performed by fitting the curve of percent inhibition versus the log of the inhibitor concentration using Dotmatics.

The target of the next assay is T2, HPK1 protein (Homo sapiens, UniProt Q92918).
T2 construct: host or cells: human PBMC (CD4+ and CD8+ T cells gated in the FACS assay)
T2 sequence (Q92918 whole entry): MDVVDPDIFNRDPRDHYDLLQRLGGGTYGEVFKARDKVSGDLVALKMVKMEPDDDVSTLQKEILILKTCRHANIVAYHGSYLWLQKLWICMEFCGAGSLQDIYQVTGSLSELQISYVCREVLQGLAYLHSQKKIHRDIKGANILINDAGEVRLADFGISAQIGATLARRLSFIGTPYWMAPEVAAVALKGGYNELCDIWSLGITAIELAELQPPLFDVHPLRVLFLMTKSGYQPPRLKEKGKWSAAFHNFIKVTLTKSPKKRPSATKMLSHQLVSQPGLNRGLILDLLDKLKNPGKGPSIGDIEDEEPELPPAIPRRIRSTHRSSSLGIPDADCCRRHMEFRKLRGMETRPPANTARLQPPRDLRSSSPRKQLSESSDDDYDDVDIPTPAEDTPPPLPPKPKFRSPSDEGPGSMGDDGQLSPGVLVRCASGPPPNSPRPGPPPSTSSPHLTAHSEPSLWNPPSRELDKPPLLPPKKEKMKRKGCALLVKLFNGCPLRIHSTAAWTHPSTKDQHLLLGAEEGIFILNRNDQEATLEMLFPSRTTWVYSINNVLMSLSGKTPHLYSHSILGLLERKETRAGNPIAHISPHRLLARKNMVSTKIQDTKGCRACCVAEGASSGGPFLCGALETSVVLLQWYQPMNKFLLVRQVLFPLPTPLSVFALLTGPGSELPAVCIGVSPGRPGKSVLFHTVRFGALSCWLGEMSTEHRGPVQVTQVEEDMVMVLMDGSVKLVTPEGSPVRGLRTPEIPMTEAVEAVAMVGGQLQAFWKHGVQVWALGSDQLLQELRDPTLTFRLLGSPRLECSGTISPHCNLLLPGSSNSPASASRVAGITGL
Kind of assay: HPK1 Protein Degradation Assay in Human PBMC (FACS). The class given is cell-based. Conditions: 24 h compound treatment. The method, then:
HPK1 Protein Degradation Assay in Human PBMC (FACS)
Human PBMCs (AllCells) was used in this study. Cells were thawed one day in advance and maintained in RPMI-1640 supplemented 10% fetal bovine serum (Thermo Fisher), 50 units/mL penicillin and streptomycin (Thermo Fisher) and the mixture was kept at 37° C. in a humidified atmosphere air containing 5% CO2. 3×10^6 PBMCs per well in 95 μL culture medium were seed in the 96-well plate, and the cells were treated with an appropriate dilution series of compounds. After 24 h compound treatment, 100 μL 1xLyse/Fix buffer (BD, diluted with water, warm up in 37° C.) was added to cells and the cells were incubated at 37° C. for 10 minutes. After fixed, the cells were transferred to V-bottom plates (Corning), and washed with FACS buffer (cold 2% FBS DPBS). The cells were permeabilized by adding 100 μL pre-chilled BD Phosflow Perm Buffer III (BD) for 30 min on ice. After washed with FACS buffer twice, the cells were incubated with 50 μL antibody cocktail (HPK1(CST)(1:50), anti-human CD4 BV421 (BD)(1:25), anti-human CD8 APC(BD) (1:25)) at room temperature for 1 h. After washed with FACS buffer twice, the cells were further incubated with 50 μL secondary antibody cocktail (Biolegend) (1:50) at room temperature for 1 h. After washed with FACS buffer twice, the signals were detected by BD FACS Celesta. The data were analyzed by Excel and GraphPad Prism 8.

The mark [3] stands for this setting: CD4+ T Cells, read-out: Protein degradation DC50, CD4+ T Cells.
[4] abbreviates: CD4+ T Cells, read-out: Protein degradation Dmax, CD4+ T Cells.
Setting [5] is: CD8+ T Cells, read-out: Protein degradation DC50, CD8+ T Cells.
Where [6] appears, read: CD8+ T Cells, read-out: Protein degradation Dmax, CD8+ T Cells.

Broadly, the IC50 is the concentration at which inhibition is half-maximal. The DC50 is the concentration at which degradation of the target reaches its halfway point. As a reminder, the Dmax is the largest share of the target that was removed. In the case of `Cc1cc(-c2cnc3[nH]cc(-c4ccc(C(=O)N(C)C)cc4)c3n2)cc2c1CN(CCC(=O)N1CCN(c3ccc(N4CCC(=O)NC4=O)cc3)CC1)CC2` [Example 5, 4-(2-(2-(3-(4-(4-(2,4-dioxotetrahydropyrimidin-1(2H)-yl)phenyl)piperazin-1-yl)-3-oxopropyl)-8-methyl-1,2,3,4-tetrahydroisoquinolin-6-yl)-5H-pyrrolo[2,3-b]pyrazin-7-yl)-N,N-dimethylbenzamide], the IC50 in assay [1] stood at 24 nM; in assay [2], 116 nM. Further, the “Protein degradation DC90, CD4+ T Cells” value at HPK1 protein (CD4+ T Cells) turned out to be 60 nM. Moreover, the 50% degradation concentration (DC50) at HPK1 protein (setting [3]) was 9 nM; on HPK1 protein (setting [5]) it was 17 nM. For the same molecule, the results for the Dmax at HPK1 protein (setting [4]) and on HPK1 protein (setting [6]) were 95% and 96%, respectively. Besides, the “Protein degradation DC90, CD8+ T Cells” value at HPK1 protein (CD8+ T Cells) amounted to 128 nM.
Turning to `Cc1cc(-c2cnc3[nH]cc(-c4ccc(C(=O)N(C)C[C@H](C)O)cc4)c3c2)cc2c1CN(CCC(=O)N1CCN(c3ccc(N4CCC(=O)NC4=O)cc3)CC1)CC2` [Example 9, (S)-4-(5-(2-(3-(4-(4-(2,4-dioxotetrahydropyrimidin-1(2H)-yl)phenyl)piperazin-1-yl)-3-oxopropyl)-8-methyl-1,2,3,4-tetrahydroisoquinolin-6-yl)-1H-pyrrolo[2,3-b]pyridin-3-yl)-N-(2-hydroxypropyl)-N-methylbenzamide], the IC50 stood at 16 nM in assay [1] and 181 nM in assay [2]. In addition, on HPK1 protein (CD4+ T Cells), the “Protein degradation DC90, CD4+ T Cells” value is listed as 77 nM. The DC50 is 19 nM on HPK1 protein (setting [3]) and 71 nM at HPK1 protein (setting [5]). Further, the Dmax at HPK1 protein (setting [4]) is 93%; at HPK1 protein (setting [6]) it was 95%. In addition, on HPK1 protein (CD8+ T Cells), the “Protein degradation DC90, CD8+ T Cells” value worked out at 495 nM.
Take `Cc1cc(-c2cnc3[nH]cc(-c4ccc(C(=O)N(C)C)cc4)c3c2)cc2c1CN(CCC(=O)N1CCN(c3ccc(N4CCC(=O)NC4=O)cc3)CC1)CC2` [Example 6, 4-(5-(2-(3-(4-(4-(2,4-dioxotetrahydropyrimidin-1(2H)-yl)phenyl)piperazin-1-yl)-3-oxopropyl)-8-methyl-1,2,3,4-tetrahydroisoquinolin-6-yl)-1H-pyrrolo[2,3-b]pyridin-3-yl)-N,N-dimethylbenzamide]: the 50% inhibitory concentration (IC50) amounted to 31 nM in assay [1] and 88 nM in assay [2]. In addition, on HPK1 protein (CD4+ T Cells), the “Protein degradation DC90, CD4+ T Cells” value stood at 52 nM. In addition, the values for the half-maximal degradation concentration (DC50) on HPK1 protein (setting [3]) and at HPK1 protein (setting [5]) were 11 nM and 16 nM, respectively. Besides, the Dmax at HPK1 protein (setting [4]) and on HPK1 protein (setting [6]) was 96% in each case. For the same molecule, the “Protein degradation DC90, CD8+ T Cells” value at HPK1 protein (CD8+ T Cells) is 104 nM.
As for `Cc1cc(-c2c[nH]c3ncc(-c4cc(C)c5c(c4)CCN(CCNC(=O)CC4CCN(c6ccc(C7CCC(=O)NC7=O)cc6)CC4)C5)nc23)ccc1C(=O)N(C)C` (stereo not shown) [Example 8, 4-(2-(2-(2-(2-(1-(4-(2,6-dioxopiperidin-3-yl)phenyl)piperidin-4-yl)acetamido)ethyl)-8-methyl-1,2,3,4-tetrahydroisoquinolin-6-yl)-5H-pyrrolo[2,3-b]pyrazin-7-yl)-N,N,2-trimethylbenzamide], the figures for the IC50 in assay [1] and in assay [2] were 297 nM and 496 nM, respectively.
Consider `Cc1cc(-c2cnc3[nH]cc(-c4ccc(C(=O)N(C)C[C@H](C)O)cc4)c3n2)cc2c1CN(CCC(=O)N1CCN(c3ccc(N4CCC(=O)NC4=O)cc3)CC1)CC2` [Example 7, (S)-4-(2-(2-(3-(4-(4-(2,4-dioxotetrahydropyrimidin-1(2H)-yl)phenyl)piperazin-1-yl)-3-oxopropyl)-8-methyl-1,2,3,4-tetrahydroisoquinolin-6-yl)-5H-pyrrolo[2,3-b]pyrazin-7-yl)—N-(2-hydroxypropyl)—N-methylbenzamide], for which the half-inhibitory concentration (IC50) was 20 nM in assay [1] and 307 nM in assay [2]. Moreover, the “Protein degradation DC90, CD4+ T Cells” value at HPK1 protein (CD4+ T Cells) is 118 nM. Moreover, the DC50 on HPK1 protein (setting [3]) was determined as 25 nM; on HPK1 protein (setting [5]), 45 nM. The Dmax at HPK1 protein (setting [4]) and at HPK1 protein (setting [6]) was 95% each time. Moreover, the “Protein degradation DC90, CD8+ T Cells” value at HPK1 protein (CD8+ T Cells) is given as 388 nM.

For the origin of these results see patent US20240228497A1, “Pyrrolo[2, 3-b]Pyrazine-Based Bifunctional Compounds as HPK1 Degraders and the Use Thereof” (BeiGene, Ltd., priority 2021, published 2024).
